Results taken from US11697669B2, “Hemi-citrate salts of GABA-A positive allosteric modulator and crystalline form thereof” (priority 2021, dated 2023).
Structures can show the parent of a compound that is named as a salt. Where two headings read alike, the source gives them in different places.

Experiments:
Format in all cases: physicochemical
[1] = Dynamic vapor sorption (DVS) at room temperature and 40° C.
Experimental: DVS was measured via a SMS (Surface Measurement System) DVS Intrinsic. Parameters for DVS data collection were as follows:
A second endotherm (having an onset at 121.5° C.) associated with melting of the dehydrated phase (ΔH: 15.20 J/g) was followed by a rapid decomposition as temperature continued to increase (FIG. 3). Because of the low onset of dehydration, the DVS was measured at both room temperature and at 40° C. to predict the stability of the crystalline phase at 40° C. […] A 1.5% weight loss was observed between 95% and 20% RH, and a 2.9% weight loss was observed between 20% and 0% RH, for a total loss of […] across the entire cycle. […] After measuring the hygroscopicity by DVS, an XRPD pattern was collected for comparison to the original material and found to correspond well to the pattern of the room temperature sample post-DVS temperature cycle (FIG. 6).

[2] = Heckel analysis on compaction simulator (yield pressure, strain rate sensitivity, crushing strength); conditions: for yield pressure, slow speed: punch speed 0.1 mm/s; for yield pressure, fast press speed: punch speed 300 mm/s
Experimental: The aim of the Heckel test is to compress the material under controlled conditions to derive the yield pressure of the bulk material. A known weight of material is compressed within a 10 mm diameter die with flat faced punches moving at a set speed. The force on the punch is accurately measured at frequent intervals whilst the displacement of the punches is used to calculate the volume of the powder. The yield pressure is calculated at slow and fast punch speeds to assess the time-dependent component to deformation of the material.
A known weight of pure drug is compacted to theoretical zero porosity using 10 mm diameter flat faced punches. The Compaction Simulator was used under the following conditions:
During compression the location of the punch tips are accurately determined, and the force measured by load cells producing a record of the primary compression parameters. Temperature and humidity were monitored at intervals during the test.
The data were analyzed by the Compaction Analysis software program to generate values for yield pressure (Py) using the Heckel equation:
[formula] where D=the relative density of the compact; • P=Pressure applied; and • K=Gradient of the line in the linear region; [Reference: R. W. Heckel. Trans. Metall. Soc. AIME 221 (1961)1001-1008].
For some materials, the deformation characteristics change with rate of applied force. This can be estimated by calculating the Strain Rate Sensitivity. The yield pressure at high speed compression is compared to that at slow speed using the following equation:
[formula] [Reference: R. J. Roberts and R. C. Roe, Chem. Eng. Sci. 42(1987) p 903]. Results

[3] = Tablet stability: C17 epimer in sealed bottles stored at 40° C./75% RH; conditions: tablet dosage form, sealed bottle, 1 or 2 months, versus mono-citrate salt
Experimental: FIG. 12 is a graph comparing the amount of the C17 epimer, a degradation product of Compound 1, over time for a tablet formulation containing Compound 1 hemi-citrate salt (Form I; left column in both “1 month” and “2 months”) or Compound 1 mono-citrate salt (Form A; right column in both “1 month” and “2 months”) in sealed bottles stored at 40° C./75% RH).

[4] = Tablet dissolution: percent release of Compound 1 from acidified tablet formulation
Experimental: FIG. 13 is a graph showing percent release of Compound 1 over time for an acidified tablet formulation containing Compound 1 hemi-citrate salt Form I. Tablets were used initially or maintained at 40° C./75% RH for 2 weeks, 1 month, or 2 months.
FIG. 14 is a graph showing percent release of Compound 1 over time for an acidified tablet formulation containing Compound 1 mono-citrate salt (Form A). Tablets were used initially or stored at 40° C./75% RH for 2 weeks, 1 month, or 2 months.

[5] = Gelation experiments in aqueous media; conditions: for gelation during tablet dissolution experiments: certain conditions
Experimental: To confirm these findings, controlled experiments were conducted where the free base, mono-citrate, and hemi-citrate salts of Compound 1 were dissolved in aqueous media at concentrations between 0.5 mg/mL and 10 mg/mL. The dissolution experiments were performed in either 0.1 N HCl, water, or pH 7.4 buffer as aqueous media.

[6] = fast speed 300 mm/s, single runs, 21.7° C./38.9% RH

With `COC[C@@]1(O)CC[C@@]2(C)[C@@H](CC[C@@H]3[C@@H]2CC[C@]2(C)[C@@H](C(=O)Cn4ccnc4)CC[C@@H]32)C1` [Compound 1 hemi-citrate salt Form I, 3α-Hydroxy-3β-methoxymethyl-21-(1′-imidazolyl)-5α-pregnan-20-one] the hygroscopicity [1] was “slightly hygroscopic”, the “reversibility of water loss” value ([1]; 40° C.) was “fully reversible” and the total loss ([1]; 40° C.) was 5.4%. For the same compound, the “water absorption from 20% to 80% RH” value ([1]; 40° C.) was 1.8%, the “water lost between 95% and 20% RH” value ([1]; 40° C.) was 2.2% and the “water lost from 20% to 0% RH” value ([1]; 40° C.) was 3.2%. For the same compound, the “reversibility of water loss” value ([1]; room temperature) was “fully reversible”, the “total loss across the entire cycle” value ([1]; room temperature) was 4.3% and the “water uptake between 20% and 80% RH” value ([1]; room temperature) was 1.2%. For the same compound, the “weight loss between 20% and 0% RH” value ([1]; room temperature) was 2.9%, the “weight loss between 95% and 20% RH” value ([1]; room temperature) was 1.5% and the “Strain rate sensitivity (SRS)” value ([2]; fast versus slow speed yield pressure) was 21.4%. The “yield pressure, slow speed” value [2] was 69 MPa.

For `COC[C@@]1(O)CC[C@@]2(C)[C@@H](CC[C@@H]3[C@@H]2CC[C@]2(C)[C@@H](C(=O)Cn4ccnc4)CC[C@@H]32)C1` [Compound 1 hemi-citrate salt, 3α-Hydroxy-3β-methoxymethyl-21-(1′-imidazolyl)-5α-pregnan-20-one], the “degradation product (C17-epimer) generated” value [3] was “less degradation product”, the “release of Compound 1 over time” value ([4]; acidified formulation, initial and open dish at 40° C./75% RH for 2 weeks, 1 month or 2 months) was “greater than the release of Compound 1 from the same acidified formulation of the Compound 1 mono-citrate salt” and the “susceptibility to dissolution slow-down of the tablet” value ([4]; tablet, versus mono-citrate salt) was “less susceptible than the Compound 1 mono-citrate salt to dissolution slow-down”. The gelation ([5]; any of the aqueous media (0.1 N HCl, water, pH 7.4 buffer), concentrations up to 10 mg/mL) was “did not gel”, the “gelation during tablet dissolution experiments” value [5] was “not prone to gelation” and the “classification of compaction properties” value [2] was “soft ductile compaction properties”. The “yield pressure, fast press speed” value [2] was 84 MPa.

For `COC[C@@]1(O)CC[C@@]2(C)[C@@H](CC[C@@H]3[C@@H]2CC[C@]2(C)[C@@H](C(=O)Cn4ccnc4)CC[C@@H]32)C1.O=C(O)CC(O)(CC(=O)O)C(=O)O` [Compound 1 mono-citrate salt Form A], the Compact observations [2, 6] was “Laminated”, the “Ejection Force” value [2, 6] was 0.740 kN and the “yield pressure, slow speed” value [2] was 84 MPa. For the same compound, the Compact observations ([2]; slow speed 0.1 mm/s, single runs, 21.6° C./37.1% RH) was “Ok”.

With `COC[C@@]1(O)CC[C@@]2(C)[C@@H](CC[C@@H]3[C@@H]2CC[C@]2(C)[C@@H](C(=O)Cn4ccnc4)CC[C@@H]32)C1.O=C(O)CC(O)(CC(=O)O)C(=O)O` [Compound 1 mono-citrate salt, 3α-Hydroxy-3β-methoxymethyl-21-(1′-imidazolyl)-5α-pregnan-20-one, reference compound] the gelation ([5]; 0.1 N HCl, 5 mg/mL) was “rapidly gelled”, the “gelation during tablet dissolution experiments” value [5] was “significant gelation” and the gelation ([5]; water or pH 7.4 buffer) was “did not gel”. The “classification of compaction properties” value ([2]; from slow speed yield pressure) was “moderately brittle/ductile compaction properties” and the “yield pressure, fast press speed” value [2] was 109 MPa.

With `COC[C@@]1(O)CC[C@@]2(C)[C@@H](CC[C@@H]3[C@@H]2CC[C@]2(C)[C@@H](C(=O)Cn4ccnc4)CC[C@@H]32)C1` [Compound 1, 3α-Hydroxy-3β-methoxymethyl-21-(1′-imidazolyl)-5α-pregnan-20-one] the gelation ([5]; 0.1 N HCl, concentrations as low as 1 mg/mL) was “rapidly gelled” and the gelation ([5]; water or pH 7.4 buffer) was “did not gel”.
